Results on 38 compounds are retold here after US9062284B2, “Uses and detection of herbicide resistance genes for resistance to aryloxyalkanoate herbicides” (Dow ArgoSciences LLC, priority 2007, dated 2015).

What is called Km is the substrate concentration at which the rate is half of its maximum. As usually defined, the kcat is the maximal rate divided by the concentration of active sites.

The first assay addresses T1, AAD-13 (v2) (Sphingobium herbicidovorans, UniProt Q700X4).
T1 construct: His tag (C); made in house; host or cells: E. coli BL-21, pET-26b(+)
Assay: not given
It counts as biochemical. Particulars: substrate 0.5 mM (asterisk); rate as percentage of 2,4-D rate. The text has this:
In order to test a broad range of substrates, the production of succinate from the breakdown of α-ketoglutarate was detected spectrophotometricly using a protocol based on the method of Luo et. al. (2006) (Anal. Biochem. 353: 69-74). As depicted in FIG. 3, the concomitant breakdown of α-ketoglutarate and the substrate of interest via AAD-13, results in the production of succinate. Succinate is further modified to succinyl-CoA by succinyl-CoA synthetase which consumes ATP and produces ADP. ADP is then consumed by the commonly employed pyruvate kinase/lactate dehydrogenase enzymatic coupling system (Sigma P0294). The resulting conversion of NADH to NAD is monitored spectrophotometrically at 340 nm.
Identification of AAD-13 (v2) substrates in vitro was based on enzymatic activity detected during continuous spectrophotometric monitoring of a 0.2 mL reaction volume in a 96 well microtiter plate. Reaction conditions were as follows: 100 mM MOPS pH 7.0, 0.4 mM NADH, 0.4 mM ATP, 0.4 mM CoA, 1 mM PEP, 10 mM MgCl2, 0.1 mM […] (solubilized in HCl), and 0.1 mM ascorbate, 1 mM α-ketoglutarate and sufficient AAD-13 (v2) to produce an observable rate in the presence of 2,4-D. Coupling enzymes (SCS/PK/LDH) were adjusted by batch to ensure adequate coupling, and potential substrates were generally assayed at 1 mM. Alterations in substrate concentrations were made as needed to adjust for solubility. Reactions were initiated by either the addition of AAD-13 (v2) or potential substrate. The rate of substrate independent conversion of α-ketoglutarate to succinate by AAD was monitored under the above assay conditions and subtracted from the observed reaction rates. […] Additionally, propionate compounds were checked for pyruvate contamination by spectrophotometrically monitoring the consumption of NADH in the presence of compound and PK/LDH.
Reaction rates are reported as a percentage of the 2,4-D reaction rate obtained in the same sample set. […] It should be noted that faster rates can be more difficult to accurately compare depending on the percentage of available substrate consumed. […] As a result, highly efficient substrates will be properly grouped when compared to low efficiency substrates. Within the grouping of highly efficient substrates however, compounds may not be quantitatively separated by a screen using single rates of substrate and AAD.
Take `O=C(O)COc1ccc(Cl)c2cccnc12` [compound 204558]: the “% of 24D activity” value is listed as “Not Detected”. Regarding `O=C(O)c1cc2cc([N+](=O)[O-])ccc2o1` [compound 238166], the “% of 24D activity” value is recorded as “Not Detected”. Same read-out and setting: as for `O=C(O)COc1ccc(C(=O)c2ccc(Cl)cc2)c(Cl)c1Cl` [compound 761310], the entry is “Not Detected”. On the same count and under the same terms, as for `O=C(O)c1cc2cc(Cl)cc(Cl)c2o1` [compound 11077344], the entry is “Not Detected”; as for `O=C(O)c1cc2cc(Cl)ccc2o1` [compound 11077347], “Not Detected”.

Still in this assay, the particulars now being: substrate 1 mM; rate as percentage of 2,4-D rate in same sample set; propionate rates divided by two.
Consider `O=C(O)COc1ccc(Cl)cc1Cl` [2,4-D, 2,4-dichlorophenoxyacetic acid], for which the “% of 24D activity” value is listed as 100%. Same read-out and setting: under `Nc1c(Cl)ccc(OCC(=O)O)c1Cl` [3-amino 24D] stands 151%. Still for that read-out and setting: under `O=C(O)CCCOc1ccc(Cl)cc1Cl` [24DB] stands 2%; under `Cc1cc(Cl)ccc1OC(C)C(=O)O` (centres unmarked) [Mecoprop], 169%.

On to `C[C@@H](Oc1ccc(Oc2nc3ccc(Cl)cc3o2)cc1)C(=O)O` [R-fenoxaprop], for which the “% of 24D activity” value is given as 2%. In the case of `C[C@H](Oc1ccc(Cl)cc1Cl)C(=O)O` [S-dichlorprop], the “% of 24D activity” value is listed as 233%. The same measure, in the same setting: under `CC(Oc1nc(F)c(Cl)c(N)c1Cl)C(=O)O` (stereo not drawn) [alpha methyl floroxypyr] stands 43%; under `CC(Oc1ccc(C(=O)c2ccc(Cl)cc2)cc1)C(=O)O` (centres unmarked) [compound 8563], 64%; under `CC(Oc1ncc(Cl)cc1Cl)C(=O)O` (centres unmarked) [compound 66357], 24%. On the same count and under the same terms, as for `CC(Oc1ccc(C(=O)c2ccccc2)cc1)C(=O)O` (centres unmarked) [compound 66732], the figure is greater than 100%. As to `CC(Oc1ccc(F)cc1Cl)C(=O)O` (centres unmarked) [compound 83293], the “% of 24D activity” value was found to be 106%. Same read-out and setting: as for `CC(Oc1nc(F)c(Cl)cc1Cl)C(=O)O` (centres unmarked) [compound 91767], the figure is 88%; as for `O=C(O)COCc1ccccc1` [compound 93116], 128%; as for `O=C(O)COc1nc(F)c(Cl)cc1Cl` [compound 93833], 33%.

Take `CC(OCc1ccccc1)C(=O)O` (centres unmarked) [compound 118942]: the “% of 24D activity” value was found to be 46%. Still for that read-out and setting: under `O=C(O)COc1ccc(F)cc1Cl` [compound 124988] stands 44%; under `O=C(O)/C=C/c1ccccc1Cl` [compound 187507], 10%; under `CCCC(Oc1cc(Cl)c(Cl)cc1Cl)C(=O)O` (centres unmarked) [compound 188495], 19%.

For `CCCCOC(C)C(=O)O` (centres unmarked) [compound 191716], the “% of 24D activity” value is 66%. In the case of `O=C(O)COc1ccc(C(=O)c2ccccc2)cc1` [compound 193908], the “% of 24D activity” value is 56%. Still for that read-out and setting: under `O=C(O)c1cc2cc(Br)cc(Br)c2o1` [compound 198167] stands “Not Detected”; under `O=C(O)COC(c1ccccc1)C(F)(F)F` (centres unmarked) [compound 470901], 30%.

For the compound `O=C(O)COCc1ccc(Cl)cc1` [compound 475726], the “% of 24D activity” value was found to be 112%. Same read-out and setting: under `C=C(C)CCOCC(=O)O` [compound 571320] stands 39%; under `CC(Oc1nn(-c2ccccc2)c(-c2ccccc2)c1Cl)C(=O)O` (centres unmarked) [compound 657338], 5%; under `CC(Oc1nn(-c2ccccc2)c(-c2ccccc2)c1Br)C(=O)O` (centres unmarked) [compound 657339], 5%. Same read-out and setting: under `CC(Oc1ccc(Cl)c(N)c1Cl)C(=O)O` (centres unmarked) [compound 11113675] stands 113%; under `O=C(O)COc1cc(N2C(=O)C3=C(CCCC3)C2=O)c(F)cc1Cl` [compound 11213586], 2%; under `O=C(O)/C=C\c1ccccc1Cl` [compound 11453845], 13%. Same read-out and setting: under `CC(Oc1ccc(Oc2ccc(Cl)cc2Cl)cc1)C(=O)O` (centres unmarked) [diclofop] stands greater than 100%; under `CC(Oc1ccc(Oc2ccc(C(F)(F)F)cn2)cc1)C(=O)O` (centres unmarked) [fluazifiop], roughly 50%. With `CC(Oc1ccc(Cl)cc1Cl)C(=O)O` (centres unmarked) [r,s dichlorprop, dichlorprop], the “% of 24D activity” value is listed as 195%.

The target in a further assay is T2, AAD-13 (Sphingobium herbicidovorans, UniProt Q700X4).
T2 sequence (Q700X4 with tags, fused parts or gaps): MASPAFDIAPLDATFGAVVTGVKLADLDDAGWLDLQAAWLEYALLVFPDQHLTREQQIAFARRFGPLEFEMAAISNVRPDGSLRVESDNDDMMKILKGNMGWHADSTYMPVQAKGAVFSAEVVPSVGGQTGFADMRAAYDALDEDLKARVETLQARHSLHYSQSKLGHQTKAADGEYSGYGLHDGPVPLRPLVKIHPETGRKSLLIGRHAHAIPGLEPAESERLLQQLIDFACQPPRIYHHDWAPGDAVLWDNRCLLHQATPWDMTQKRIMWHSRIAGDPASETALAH
Assay: not given
Particulars: CNPP as substrate, pH 6.75.
For the compound `CC(Oc1ccc([N+](=O)[O-])cc1Cl)C(=O)O` (centres unmarked) [CNPP], the Km was found to be 31 ± 5.5 µM and the kcat was found to be 16.2 ± 0.79 min⁻¹.

A further assay deals with AAD-13 (v1) transformed T1 Arabidopsis. As to the kind of experiment: Postemergence herbicide response of AAD-13 (v1) T1 Arabidopsis. The class given is in vivo, Arabidopsis thaliana. Particulars: 2,240 g ae/ha 2,4-D. On the procedure: Seven days after planting (DAP) and again 11 DAP, T1 plants (cotyledon and 2-4-lf stage, respectively) were sprayed with a 0.2% solution of Liberty herbicide (200 g ai/L glufosinate, Bayer Crop Sciences, Kansas City, Mo.) at a spray volume of 10 ml/tray (703 L/ha) using a DeVilbiss compressed air spray tip to deliver an effective rate of 280 g ai/ha glufosinate per application. Survivors (plants actively growing) were identified 4-7 days after the final spraying and transplanted individually into 3-inch pots prepared with potting media (Metro Mix 360). Transplanted plants were covered with humidity domes for 3-4 days and placed in a 22° C. growth chamber as before or moved to directly to the greenhouse. Domes were subsequently removed and plants reared in the greenhouse (22±5° C., 50±30% RH, 14 h light:10 dark, minimum 500 μE/m^2s^1 natural+supplemental light) at least 1 day prior to testing for the ability of AAD-13 (v1) to provide phenoxy auxin herbicide resistance.
T1 plants were then randomly assigned to various rates of 2,4-D. For Arabidopsis, 50 g ae/ha 2,4-D is an effective dose to distinguish sensitive plants from ones with meaningful levels of resistance. Elevated rates were also applied to determine relative levels of resistance (280, 560, 1120, or 2240 g ae/ha). Tables 11 and 12 show comparisons drawn to an aryloxyalkanoate herbicide resistance gene (AAD-12 (v1)) previously described in PCT/US2006/042133.
All auxin herbicide applications were made using the DeVilbiss sprayer as described above to apply 703 L/ha spray volume (0.4 ml solution/3-inch pot) or applied by track sprayer in a 187 L/ha spray volume. 2,4-D used was either technical grade (Sigma, St. Louis, Mo.) dissolved in DMSO and diluted in water (<1% DMSO final concentration) or the commercial dimethylamine salt formulation (456 g ae/L, NuFarm, St Joseph, Mo.). Dichlorprop used was commercial grade formulated as potassium salt of R-dichlorprop (600 g ai/L, AH Marks). As herbicide rates increased beyond 800 g ae/ha, the pH of the spray solution became exceedingly acidic, burning the leaves of young, tender Arabidopsis plants and complicating evaluation of the primary effects of the herbicides.
The first Arabidopsis transformations were conducted using AAD-13 (v1) (plant optimized gene). T1 transformants were first selected from the background of untransformed seed using a glufosinate selection scheme. Over 160,000 T1 seed were screened and 238 glufosinate resistant plants were identified (PAT gene), equating to a transformation/selection frequency of 0.15% which lies in the normal range of selection frequency of constructs where PAT+Liberty are used for selection. T1 plants selected above were subsequently transplanted to individual pots and sprayed with various rates of commercial aryloxyalkanoate herbicides. Table 11 compares the response of AAD-13 (v1) and control genes to impart 2,4-D resistance to Arabidopsis T1 transformants. Response is presented in terms of % visual injury 2 WAT. […] An arithmetic mean and standard deviation is presented for each treatment. The range in individual response is also indicated in the last column for each rate and transformation. PAT/Cry1F-transformed Arabidopsis served as an auxin-sensitive transformed control. The AAD-13 (v1) gene imparted herbicide resistance to individual T1 Arabidopsis plants. Within a given treatment, the level of plant response varied greatly and can be attributed to the fact each plant represents an independent transformation event. Of important note, at each 2,4-D rate tested, there were individuals that were unaffected while some were severely affected. […] At high rates the spray solution becomes highly acidic unless buffered therefore some of the injury may be attributed to the acidity of the spray solution. Arabidopsis grown mostly in the growth chamber has a very thin cuticle and severe burning effects can complicate testing at these elevated rates. […]
Consider `O=C(O)COc1ccc(Cl)cc1Cl` [2,4-D, 2,4-dichlorophenoxyacetic acid], for which the population injury average entry is “about 15%”.

For the next assay, the system named is AAD-2 (v1) transformed T1 Arabidopsis.
Assay: not given
The settings on record: 200 g ae/ha 2,4-D; see PCT/US2005/014737; cited from earlier work.
In the case of `O=C(O)COc1ccc(Cl)cc1Cl` [2,4-D, 2,4-dichlorophenoxyacetic acid], the overall population injury result is “about 83%”.
